We go through nine compounds from patent US20110002989A1, “METHODS, DOSAGE FORMS AND KITS FOR ADMINISTERING ZIPRASIDONE WITHOUT FOOD” (Pfizer Inc., priority 2008, published 2011).

Where a name gives a salt, the structure may show the parent alone.

A short description of data set [1]: In vitro dissolution test in 0.01 N HCl simulated gastric buffer pH 2.0 (MDC and AUC90). The following applies: for AUC90 / MDC: 200 μgA/mL if all dissolved, pH 2.0, 37° C., 100 rpm; for AUC Enhancement Relative to Control 1: AUC90, pH 2.0 simulated gastric buffer; for AUC Enhancement Relative to Control 1 / MDC Enhancement Relative to Control 1: 37° C.; for MDC Enhancement Relative to Control 1: pH 2.0 simulated gastric buffer. It is filed as physicochemical. How it is done: An in vitro dissolution test may be performed by adding the test form of ziprasidone to a dissolution test media consisting of a simulated gastric buffer (GB) solution of 0.01 N HCl at pH 2.0.
In such a test, two end-points are assessed: 1) the maximum dissolved drug concentration (MDC) of ziprasidone in the test media, and 2) the area under the concentration versus time curve of dissolved ziprasidone in the in vitro dissolution test. More specifically, in the in vitro use environment, the concentration of dissolved ziprasidone over any 90-minute period from about 0 to about 270 minutes following introduction to the use environment is measured.
An in vitro test to evaluate enhanced ziprasidone dissolution rate in aqueous solution can be conducted by adding with agitation a sufficient quantity of test ziprasidone form to the test medium, such that if all the ziprasidone dissolved, the theoretical concentration of ziprasidone would exceed the equilibrium concentration provided by the control ziprasidone form by a factor of at least 2, and preferably by a factor of at least 10. Performing the test at this concentration will ensure that the MDC of ziprasidone can be determined.
Then, the concentration of dissolved ziprasidone is measured as a function of time by sampling the test medium and plotting ziprasidone concentration in the test medium versus time so that the dissolution rate can be ascertained. The MDC is taken to be the maximum value of dissolved ziprasidone measured over the duration of the test.
During such a test, the concentration of “dissolved drug” should be measured using standard analytical techniques, including high-performance liquid chromatography (HPLC), ultraviolet (UV) absorption, or other standard methods known in the art. When using solution techniques, such as HPLC, the test solution should be either filtered or centrifuged, to avoid large drug particulates that would give an erroneous determination.
“Dissolved drug” is typically taken as that material that either passes a 0.45 μm syringe filter or, alternatively, the material that remains in the supernatant following centrifugation. Filtration can be conducted using a 13 mm, 0.45 μm polyvinylidine difluoride syringe filter sold by Scientific Resources under the trademark TITAN®. Centrifugation is typically carried out in a polypropylene microcentrifuge tube by centrifuging at 13,000 G for 60 seconds. Other similar filtration or centrifugation methods can be employed and useful results obtained. For example, using other types of microfilters may yield values somewhat higher or lower (±10-40%) than that obtained with the filter specified above but will still allow identification of preferred dissolution rate-improved forms.
A specific example of a dissolution test for ascertaining solubility and dissolution rate of a test ziprasidone form is as follows: First, a sufficient amount of the test form is placed into a dissolution flask such that the concentration of ziprasidone would have been 200 μgA/mL if all the ziprasidone dissolved. A simulated GB solution at pH 2.0 is then added and the mixture stirred at a stirred speed of 100 rpm. The test is performed at 37° C. Using UV probes, the concentration of dissolved ziprasidone is then measured over time for at least 90 minutes. The formulation is considered to be a solubility-improved form or dissolution rate-improved form of ziprasidone if it provides at least one of (1) a MDC that is greater than that of the control, (2) an AUC90 that is greater than that of the control, or (3) both (1) and (2). The control formulation, as discussed above, is crystalline ziprasidone HCl monohydrate as is used in the GEODON/ZELDOX™ commercial capsules.
The following test was used to evaluate various ziprasidone formulations. […]

For data set [2] the following is noted: depending on the dose, healthy volunteers; cited from earlier work.

Take `O=C1Cc2cc(CCN3CCN(c4nsc5ccccc45)CC3)c(Cl)cc2N1` [Control 1, ziprasidone hydrochloride monohydrate, reference compound]: in data set [1] (hydrochloride monohydrate), the AUC90 is 1.6 mg·min/mL and the MDC is reported as 25 μgA/mL.
Take `O=C1Cc2cc(CCN3CCN(c4nsc5ccccc45)CC3)c(Cl)cc2N1` [Example 6, ziprasidone mesylate]: in data set [1], the AUC90 is 9.0 mg·min/mL, the MDC was 140 μgA/mL, the “AUC Enhancement Relative to Control 1” value is given as 5.5 fold and the “MDC Enhancement Relative to Control 1” value is given as 5.5 fold.
In the case of `O=C1Cc2cc(CCN3CCN(c4nsc5ccccc45)CC3)c(Cl)cc2N1` [Example 7, ziprasidone free base], in data set [1], the AUC90 is 7.0 mg·min/mL, the MDC is 85 μgA/mL, the “AUC Enhancement Relative to Control 1” value is listed as 4.3 fold and the “MDC Enhancement Relative to Control 1” value is on record as 3.3 fold.
Taken in the same sequence, the figures for `NC(CC(=O)O)C(=O)O.O=C1Cc2cc(CCN3CCN(c4nsc5ccccc45)CC3)c(Cl)cc2N1` [Example 10, ziprasidone aspartate] were 6.1 mg·min/mL, 76 μgA/mL, 3.7 fold and 3.0 fold.
`O=C1Cc2cc(CCN3CCN(c4nsc5ccccc45)CC3)c(Cl)cc2N1` [Ziprasidone, 5-[2-[4-(1,2-benzisothiazol-3-yl)-1-piperazinyl]ethyl]-6-chloro-1,3-dihydro-2H-indol-2-one]: the “enhanced absorption when given with food” value in data set [2] is recorded as “approximately 100%”.
ziprasidone citrate [Example 11]: in data set [1], the AUC90 is 2.4 mg·min/mL, the MDC is reported as 33 μgA/mL, the “AUC Enhancement Relative to Control 1” value is given as 1.5 fold and the “MDC Enhancement Relative to Control 1” value is reported as 1.3 fold.
For the compound ziprasidone succinate [Example 12], in data set [1], the AUC90 was 4.9 mg·min/mL, the MDC was 59 μgA/mL, the “AUC Enhancement Relative to Control 1” value is 3.0 fold and the “MDC Enhancement Relative to Control 1” value is given as 2.3 fold.
On the same counts, the results for ziprasidone tartrate [Example 9] are 6.1 mg·min/mL, 91 μgA/mL, 3.7 fold and 3.6 fold.
Taken in the same sequence, the figures for ziprasidone tosylate [Example 8] were 3.8 mg·min/mL, 54 μgA/mL, 2.3 fold and 2.1 fold.
